Assay results from patent US8722689B2, “Synergistic combination of flumetsulam or diclosulam with diiodomethyl-P-tolylsulfone” (Dow Global Technologies LLC, priority 2010, dated 2014).

Experiments:
Format in all cases: cell-based
[1] = test system: Gloeocapsa sp. and Oscillatoria sp. (Gs + Os); test: Algal efficacy testing, modified ASTM 5589, paint film (both studies); settings: four weeks; for % inhibition: at the total conc given; for Total conc, ppm: concentration in paint chosen as minimum inhibitory concentration for SI
Procedure: (§1) Sample preparation: A single or blend of biocides was post added into white acrylic latex paint free of biocides to give a maximum total active ingredient/s concentration tested. This paint was then diluted with a biocide free acrylic latex paint to give targeted concentrations for the testing. Depending on the type of biocide blends tested, the total biocides concentrations varies from 200 to 5000 ppm. After biocides addition or dilution, each sample was hand mixed for at least a minute until uniformity is achieved. Each of the paint samples as well as a control sample (containing no biocide) were used to prepare films on black plastic-vinyl chloride/acetate copolymer panels (LENETA, Mahwah, N.J.) using a 3 mil (0.0762 mm) bird bar applicator. The panels were thoroughly dried for at least 2 days avoiding direct exposure to sunlight. Square discs (0.5 inch; 1.27 cm^2) were cut out from each panel and were used as the substrate for fungal and algal efficacy tests. This sample size allowed for an agar border when the sample disc was placed into the well of the test plate. Each sample was tested in duplicate
(§2) Test conditions: The appropriate media (BOLD'S 3N for Chlorophytes, BG-11 for Cyanobacteria, and PDA for fungi) were used to support microbial growth. The test plates were maintained at room temp (25° C.-26° C.), in a cycled light-dark environment, for four weeks for algae. Plates for fungal challenge tests were maintained at 30 C for four weeks. At the end of the incubation period the samples were scored for percent area covered by visible microbial growth.
(§3) ASTM 5589 is a standard accelerated test method for determining resistance of various coatings (including paints) to algal defacement. To accommodate for high-throughput screening, this method was scaled down from petri plates to 6-well plates. A single coupon was placed with a pair of sterile forceps at the center of the agar plug (on top) with the painted surface facing upwards. Algal inoculums were prepared by mixing equal concentrations (1×10^6 cfu/ml) and equal volumes (depending on number of samples to be inoculated) of like growing organisms.
(§4) In Flumetsulam+various IT synergy study, three pool of mixed algae were prepared as the test inoculum, Gloeocapsa sp. and Oscillatoria sp. a mix of cyanobacteria grown on BG-11 media; Chlorella sp., Chlorella kessleri, and Nostoc commune are unicellular chlorphytes that were mixed and grown on Bold media; Trentepohlia aurea, Tretepohlia odorata, and Calotrix parientina are filamentous algae that were mixed and grown on Bold media.
(§5) In Diclosulam+various IT synergy study, only two pools of mixed algae were prepared; Gloeocapsa sp. and Oscillatoria sp. grown on BG-11 media and Chlorella sp., Chlorella kessleri, Nostoc commune, Trentepohlia aurea, Tretepohlia odorata, and Calotrix parientina grown on Bold media
(§6) Each well that contains a tested coupon was inoculated with 400 μl of organism mixture (1×10^6 cfu/ml) making sure that the whole surface (paint film as well as the agar surrounding it) was evenly covered. The plates were incubated at room temp (25° C.-26° C.) with cyclic exposure to light (OTT-Lite model # OTL4012P, 40 Watt, 26KLumen) and dark phases, for a period of four weeks. The total area covered was evaluated at the end of each week according to percent area covered in 5% increments.
(§7) The SI is calculated based on […].

[2] = test system: Aa + Tv + An + Pf + Ap + Ch (all fungi mixed as a single pool); test: Fungal efficacy testing, modified ASTM 5590, paint film (Diclosulam study, single pool); settings: four weeks; for Total conc, ppm: Diclosulam:DIMTS study, concentration in paint used for SI, 30 C; for % inhibition: at the total conc given
Procedure: as §1, §2
ASTM 5590 is a standard accelerated test method for determining resistance of various coatings (including paints) to fungal defacement. To accommodate for high-throughput screening, this method was scaled down from petri plates to 6-well plates. To set up the test, an agar plug was placed at the bottom of each well of the sterile 6-well plate. A single coupon was placed with a pair of sterile forceps at the center of the agar plug (on top) with the painted surface facing upwards. Fungal inoculums were prepared by mixing equal concentrations (1×10^6 cfu/ml) and equal volumes (depending on number of samples to be tested) of like growing organisms. For Flumetsulam+various IT synergy study, three pools of mixed fungi were prepared as the test inoculum. Cladosporium herbarum was mixed with Aureobasidium pullulans; Aspergillus niger was mixed with Penicillium funiculosum and Alternaria alternata was mixed with Trichoderma viride. For Diclosulam+various IT synergy study, all above fungi were mixed as a single pool. […] The total percent area covered was evaluated and recorded at the end of each week after the 2nd week and recorded in increments of 5%.
as §7

[3] = test system: Cp + To + Ta + Cs + Ck + Nc (algae grown on Bold media); test: Algal efficacy testing, modified ASTM 5589, paint film (Diclosulam study); settings: four weeks; for Total conc, ppm: Diclosulam:DIMTS study, concentration in paint used for SI; for % inhibition: at the total conc given
Procedure: as §1, §2, §3, §5
Each well that contains a tested coupon was inoculated with 400 μl of organism mixture (1×10^6 cfu/ml) making sure that the whole surface (paint film as well as the agar surrounding it) was evenly covered. […] The total area covered was evaluated at the end of each week according to percent area covered in 5% increments.
as §7

[4] = test system: Aspergillus niger mixed with Penicillium funiculosum (AnPf); test: Fungal efficacy testing, modified ASTM 5590, paint film (Flumetsulam study); settings: four weeks; for % inhibition: at the total conc given; for Total conc, ppm: concentration in paint chosen as minimum inhibitory concentration for SI, 30 C
Procedure: as §1, §2
(§8) ASTM 5590 is a standard accelerated test method for determining resistance of various coatings (including paints) to fungal defacement. To accommodate for high-throughput screening, this method was scaled down from petri plates to 6-well plates. To set up the test, an agar plug was placed at the bottom of each well of the sterile 6-well plate. A single coupon was placed with a pair of sterile forceps at the center of the agar plug (on top) with the painted surface facing upwards. Fungal inoculums were prepared by mixing equal concentrations (1×10^6 cfu/ml) and equal volumes (depending on number of samples to be tested) of like growing organisms. For Flumetsulam+various IT synergy study, three pools of mixed fungi were prepared as the test inoculum. Cladosporium herbarum was mixed with Aureobasidium pullulans; Aspergillus niger was mixed with Penicillium funiculosum and Alternaria alternata was mixed with Trichoderma viride. For Diclosulam+various IT synergy study, all above fungi were mixed as a single pool. Each well was inoculated with 400 μl of organism mixture (1×10^6 cfu/ml) making sure that the whole surface (paint film as well as the agar surrounding it) was evenly covered. The plates were incubated at 30° C. in presence of moisture, for a period of four weeks. The total percent area covered was evaluated and recorded at the end of each week after the 2nd week and recorded in increments of 5%.
as §7

[5] = test system: Alternaria alternata mixed with Trichoderma viride (AaTv); test: as above; settings: four weeks; for % inhibition: at the total conc given; for Total conc, ppm: concentration in paint chosen as minimum inhibitory concentration for SI, 30 C
Procedure: as §1, §2, §8, §7

[6] = test system: Cladosporium herbarum mixed with Aureobasidium pullulans (ApCh); test: as above; settings: four weeks; for % inhibition: at the total conc given; for Total conc, ppm: concentration in paint chosen as minimum inhibitory concentration for SI, 30 C
Procedure: as §1, §2, §8, §7

[7] = test system: Chlorella sp., Chlorella kessleri, and Nostoc commune (Cs + Ck + Nc); test: Algal efficacy testing, modified ASTM 5589, paint film (Flumetsulam study); settings: four weeks; for % inhibition: at the total conc given; for Total conc, ppm: concentration in paint chosen as minimum inhibitory concentration for SI, 25-26 C
Procedure: as §1, §2, §3, §4, §6, §7

[8] = test system: Trentepohlia aurea, Tretepohlia odorata, and Calotrix parientina (Cp + To + Ta); test: as above; settings: four weeks; for % inhibition: at the total conc given; for Total conc, ppm: concentration in paint chosen as minimum inhibitory concentration for SI, 25-26 C
Procedure: as §1, §2, §3, §4, §6, §7

CCOc1nc(F)cc2nc(S(=O)(=O)Nc3c(Cl)cccc3Cl)nn12 [Diclosulam, N-(2,6-dichlorophenyl)-5-ethoxy-7-fluoro[1,2,4]triazolo[1,5-c]pyrimidine-2-sulfonamide]
% inhibition ([1]; Diclosulam:DIMTS study): 85% | Total conc, ppm ([1]; Diclosulam:DIMTS study): 875 ppm | Total conc, ppm [2]: 3500 ppm | % inhibition [2]: 0% | Total conc, ppm [3]: 437.5 ppm | % inhibition [3]: 100%

Cc1ccc(S(=O)(=O)C(I)I)cc1 [DIMTS, diiodomethyl-p-tolylsulfone]
% inhibition [4]: 100% | Total conc, ppm [4]: 625 ppm | % inhibition [5]: 70% | Total conc, ppm [5]: 2500 ppm | % inhibition [6]: 100% | Total conc, ppm [6]: 625 ppm | % inhibition ([1]; Diclosulam:DIMTS study): 85% | Total conc, ppm ([1]; Diclosulam:DIMTS study): 2500 ppm | % inhibition ([1]; Flumetsulam:DIMTS study): 85% | Total conc, ppm ([1]; Flumetsulam:DIMTS study): 625 ppm | Total conc, ppm [2]: 2500 ppm | % inhibition [2]: 0% | % inhibition [7]: 100% | Total conc, ppm [7]: 1250 ppm | % inhibition [8]: 100% | Total conc, ppm [8]: 1250 ppm | Total conc, ppm [3]: 625 ppm | % inhibition [3]: 100%

Cc1ccn2nc(S(=O)(=O)Nc3c(F)cccc3F)nc2n1 [Flumetsulam, N-(2,6-difluorophenyl)-5-methyl[1,2,4]triazolo[1,5-a]pyrimidine-2-sulfonamide]
% inhibition [4]: 40% | Total conc, ppm [4]: 3500 ppm | % inhibition [5]: 70% | Total conc, ppm [5]: 3500 ppm | % inhibition [6]: 70% | Total conc, ppm [6]: 3500 ppm | % inhibition ([1]; Flumetsulam:DIMTS study): 80% | Total conc, ppm ([1]; Flumetsulam:DIMTS study): 2625 ppm | % inhibition [7]: 0% | Total conc, ppm [7]: 3500 ppm | % inhibition [8]: 95% | Total conc, ppm [8]: 3500 ppm
